Measurements published in patent US11957732B2, “Compositions and methods for sensitizing low responsive tumors to cancer therapy” (priority 2016, dated 2024).
Bridge positions count the residues as written; N and C are the ends. Square brackets hold non-standard residues; d marks the D form. Ends that are not written are not given here. hPhe = N[C@@H](CCc1ccccc1)C(=O)O; Cit = NC(=O)NCCC[C@H](N)C(=O)O

Columns and labels:
MDA-MB-231 tumor cells = experiment: Synergistic cell death effect of AMP compounds with chemotherapy (doxorubicin, carboplatin); type: cell-based
Method: MMP2 cleavable AMP-008 was dissolved in culture medium and sonicated for 2 min each and repeated for 3 times. After the cells treated with different concentration of doxorubicin HCl (Bedford Lab, Bedford, OH), AMP compounds alone or combination of doxorubicin and AMP compounds were tested for 17 hrs incubation respectively, the cells were washed three times with PBS (pH 7.4) and incubated with Cy5.5 Annexin-V (BD Bioscience Pharmingen) according to the instructions of the manufacture. The cells were imaged using Nikon Eclipse TE-300 fluorescence microscope and counted under Ex/Em 620-680 nm nm/700-750 nm.

[1] = tested on: MDA-MB-231 triple negative breast cancer cells; experiment: Cell death / apoptosis induction, concentration dependent treatment (FACS); type: cell-based; conditions: TNBC MDA-MB-231 cells, read-out: cell death effect IC-50
Method: Briefly, MDA-MB-231 cells are seeded in 12-well culture plates and grown to 80% confluency, followed by 72 h treatment with various concentrations of drugs in various combinations; untreated MDA-MB-231 cells are used as control. After the completion of treatment time cells are trypsinized, washed, and analyzed for dead or apoptotic cells by staining with propidium iodide (10 μg/ml) for 15 min, followed by flow cytometry (FACS Aria Ill, BD Biosciences, San Jose, CA, USA) at the Stanford FACS Facility. Data are analyzed by Flow Jo FACS analysis software (Tree Star, Ashland, OR, USA).

[2] = tested on: SGC-7901 gastric cancer cells; experiment: Growth suppression, apoptosis and IC50 in gastric cancer cells SGC-7901; type: cell-based; conditions: Homo sapiens, read-out: IC50 (IC50 drift, DOX only or AMP-001/DOX combination); SGC-7901 cells
MGC-803 xenograft = experiment: Synergy with doxorubicin in gastric cancer animal model in vivo; parameters: species or system athymic BALB/cA nu/nu female mice; conditions: 1 mg/kg i.p. every other day for 3 weeks
iCell Cardiomyocytes = experiment: cells; conditions: Homo sapiens, Cardiomyocyte, read-out: IC50 in cardiomyocytes
Method: Cardiomyocytes were derived from this engineered stem cell clone line as follows. Stem cell aggregates were formed from single cells and cultured in suspension in medium containing zebrafish bFGF (basic fibroblast growth factor) and fetal bovine serum. Upon observation of beating cardiac aggregates, cultures were subjected to blasticidin selection at 25 ug/ml to enrich the cardiomyocyte population. Cardiomyocyte aggregate cultures were maintained in Dulbecco's modified Eagle's medium (DMEM) containing 10% fetal bovine serum during cardiomyocyte selection through the duration of the culture prior to cryopreservation. At 30 to 32 days of culture the enriched, stem cell-derived cardiomyocytes were subjected to enzymatic dissociation using 0.5% trypsin to obtain single cell suspensions of purified cardiomyocytes, which were >98% cardiac troponin-T (cTNT) positive. These cells (iCell® Cardiomyocytes) were cryopreserved and stored in liquid nitrogen before delivery to Ionic Transport Assays from Cellular Dynamics International, Madison, WI.
For this study, single vials containing≈4.5×10^6 cardiomyocytes were thawed by immersing the frozen cryo-vial in a 37° C. water bath, transferring thawed cardiomyocytes into a 50 ml tube and diluting them with room temperature plating medium (iCell® Cardiomyocyte Plating Medium (iCPM), Cellular Dynamics International). […]

[3] = tested on: MGC-803 gastric cancer cells; experiment: Growth suppression, apoptosis and IC50 in gastric cancer cells MGC-803; type: cell-based; conditions: Homo sapiens, MGC-803, read-out: IC50 (IC50 drift, DOX only or AMP-001/DOX combination)

Row | Compound | synergistic effect when both were administered together (MDA-MB-231 tumor cells; AMP compound and doxorubicin administered together) | cell death, synergistic (not additive) effect (MDA-MB-231 tumor cells; pretreatment with AMP compound for 6 hrs followed by 1 μM doxorubicin) | IC50 [1] [µM] | IC50 [2] [µM] | extent of tumor regression (MGC-803 xenograft) | IC50 (iCell Cardiomyocytes) [µM] | IC50 [3] [µM]
1 | AMP-004: human beta-defensin joined to MMP2 cleavable peptide, SEQ ID NO: 003, three disulfide bonds (Ac-EGGGP[Cit]G[hPhe]YLDHYNCVSSGGQCLYSACPIFTKIQGTCYRGKAKCCK; disulfide 15-44, 22-37, 27-45) | Synergistic effect was same | greater than 80% | ~5 |  |  |  | 
2 | COc1cccc2c1C(=O)c1c(O)c3c(c(O)c1C2=O)C[C@@](O)(C(=O)CO)C[C@@H]3O[C@H]1C[C@H](N)[C@H](O)[C@H](C)O1 [doxorubicin] |  |  |  | 0.436 | reasonable | 9.6 | 1.08
